# Experiments:
# [1] = molecular target: T1, acid phosphatase sample derived from Morganella morganii (Morganella morganii, UniProt P28581); assay: Phosphorylation reaction of various nucleosides by acid phosphatase sample; assay type: biochemical; settings: sodium pyrophosphate 10 g/dl, nucleoside 2 g/dl, enzyme 50 units/dl, pH 4.0, 30° C., 3 hours
# T1 construct: made in house; host or cells: Morganella morganii NCIMB 10466 (native strain, not recombinant; purified from cell-free extract)
# Experimental: (§1) Sodium pyrophosphate (10 g/dl) and inosine, guanosine, uridine, or cytidine (2 g/dl) as a phosphate group acceptor were dissolved in sodium acetate buffer (pH 4.0), to which the enzyme sample prepared in Example 1 was added so that its concentration was 50 units/dl. The reaction mixture was incubated at 30° C. for 3 hours while maintaining pH at 4.0.
# [2] = test system: acid phosphatase sample derived from Escherichia blattae; assay: as above; assay type: biochemical; settings: sodium pyrophosphate 15 g/dl, nucleoside 3 g/dl, enzyme 50 units/dl, pH 4.0, 35° C., 3 hours
# Experimental: as §1, with “(15” for “(10”, “(3” for “(2”, “g/dl)” for “g/dl) as a phosphate group acceptor”, “4” for “1”, “35°” for “30°”
# [3] = test system: Escherichia coli JM109/pEPI330; assay: Production of various nucleoside-5′-phosphate esters using microbial cells of the mutant strain; assay type: cell-based; settings: sodium pyrophosphate 12 g/dl, nucleoside 6 g/dl, cells 200 mg/dl dry weight, pH 4.0, 35° C., 32 hours
# Experimental: Escherichia coli JM109/pEPI330 into which the plasmid containing the gene encoding the acid phosphatase with lowered phosphomonoesterase activity had been introduced was inoculated to an L medium (50 ml) containing 100 μg/ml of ampicillin and 1 mM of IPTG, and it was cultivated at 37° C. for 16 hours.
# Sodium pyrophosphate (12 g/dl), and inosine, guanosine, uridine, or cytidine (6 g/dl) as a phosphate group acceptor were dissolved in 100 mM sodium acetate buffer (pH 4.0), to which the microbial cells described above were added to give a cell concentration of 200 mg/dl as converted into a dry weight of the cells. The reaction mixture was incubated at 35° C. for 32 hours while maintaining pH at 4.0. Produced nucleotide contained only nucleoside-5′-phosphate ester. By-production of nucleoside-2′-phosphate ester and nucleoside-3′-phosphate ester was not observed at all.
# E. coli JM109/pEPI380 = assay: Production of various nucleoside-5′-phosphate esters using new mutant acid phosphatase gene-containing strain; assay type: cell-based; settings: pyrophosphoric acid 15 g/dl, nucleoside 8 g/dl, cells 100 mg/dl dry weight, pH 4.0, 35° C., 12 hours
# Experimental: E. coli JM109/pEPI380 having introduced therein the plasmid containing the new mutant acid phosphatase gene was inoculated into 50 ml of an L medium containing 100 μg/ml of ampicillin and 1 mM of IPTG, and incubated at 37° C. for 16 hours.
# Pyrophosphoric acid (15 g/dl) and 8 g/dl of inosine, […], uridine or cytidine as a phosphate acceptor were dissolved in a 100 mM acetate buffer ([…]). To this was added the above-mentioned strain such that the concentration reached 100 mg/dl in terms of the dry cell weight. The reaction was conducted at 35° C. for 12 hours while maintaining the pH at 4.0. The phosphorylation proceeded well with any of the nucleosides to form and accumulate the corresponding nucleoside-5′-phosphate esters. The nucleotide formed was only the nucleoside-5′-phosphate ester, and the formation of a nucleoside-2′-phosphate ester and a nucleoside-3′-phosphate ester as by-products was not observed at all.
# [4] = Properties of the purified acid phosphatase; assay type: biochemical; settings: for Temperature stability (stable up to): treatment at pH 7.0 for 30 minutes
# Experimental: The transphosphorylation activity was measured under the following condition using inosine as the substrate. The reaction was performed at pH 5.0 at 30° C. for 10 minutes in a reaction solution (1 ml) containing 40 μmol/ml of inosine, 100 μmol/ml of sodium pyrophosphate, 100 μmol/ml of sodium acetate buffer (pH 5.0), and an enzyme. The reaction was stopped by adding 200 μl of 2 N hydrochloric acid. After that, precipitates were removed by centrifugation. Then, 5′-inosinic acid produced by the transphosphorylation reaction was quantitatively measured. The amount of enzyme to produce 1 μmol of 5′-inosinic acid per 1 minute under this standard reaction condition was defined as 1 unit.
# The phosphomonoesterase activity was measured under the following condition using 5′-inosinic acid as a substrate. The reaction was performed at 30° C. for 10 minutes in a reaction solution (1 ml) containing 10 μmol/ml of 5′-inosinic acid, 100 μmol/ml of MES/NaOH buffer (pH 6.0), and an enzyme. The reaction was stopped by adding 200 μl of 2 N hydrochloric acid. After that, precipitates were removed by centrifugation. Then, inosine produced by the hydrolytic reaction was quantitatively measured. An amount of enzyme to produce 1 μmol of inosine per 1 minute under this standard reaction condition was defined as 1 unit.
# [5] = 5′-inosinic acid production by purified enzyme sample at various pH; assay type: biochemical; settings: enzyme 50 units/dl, pH 4.0, 30° C., 3 hours
# Experimental: Sodium pyrophosphate (10 g/dl) and inosine (2 g/dl) were dissolved in sodium acetate buffers each having pH of 5.5, 5.0, 4.5, 4.0, and 3.5, to which the enzyme sample described above was added so that a concentration of 50 units/dl was obtained. The reaction mixture was incubated at 30° C. for 6 hours while maintaining each pH, and the amount of produced 5′-inosinic acid was measured along with passage of time. Produced inosinic acid contained only 5′-inosinic acid. Production of 2′-inosinic acid and 3′-inosinic acid by-products was not observed at all. The velocity of 5′-inosinic acid production was maximum at pH 5.0. However, the maximum accumulated amount of 5′-inosinic acid was higher at lower pH. The reaction condition at pH 4.0 was most efficient for production of 5′-inosinic acid, in which 5′-inosinic acid was produced and accumulated in an amount of 2.60 g/dl by performing the reaction for 3 hours.
# Sodium pyrophosphate (15 g/dl) and inosine (3 g/dl) were dissolved in sodium acetate buffers each having pH of 5.5, 5.0, 4.5, 4.0, and 3.5, to which the enzyme sample described above was added so that a concentration of 50 units/dl was obtained. The reaction mixture was incubated at 30° C. for 6 hours while maintaining each pH, and the amount of produced 5′-inosinic acid was measured along with passage of time. Produced inosinic acid contained only 5′-inosinic acid. […]
# [6] = phosphate ester hydrolytic reaction
Molecule,Amount Produced (nucleoside-5′-ester) [1] [g/dL],Amount Produced (nucleoside-5′-ester) [2] [g/dL],Amount Produced (nucleoside-5′-phosphate ester) [3] [g/dL],Amount of the Product (nucleoside-5′-phosphate ester) (E. coli JM109/pEPI380) [g/dL],Optimum temperature [4],phosphate ester hydrolytic activity (phosphomonoesterase activity) higher than the transphosphorylation activity [4],"Optimum pH [4, 6]",Optimum pH ([4]; transphosphorylation reaction),Temperature stability (stable up to) [4],"5′-inosinic acid produced and accumulated ([5]; sodium pyrophosphate 15 g/dl, inosine 3 g/dl) [g/dL]","5′-inosinic acid produced and accumulated ([5]; sodium pyrophosphate 10 g/dl, inosine 2 g/dl) [g/dL]"
"O=c1ccn([C@@H]2O[C@H](CO)[C@@H](O)[C@H]2O)c(=O)[nH]1 [Uridine, uridine]",1.30,1.87,8.93,13.28,,,,,,,
"Nc1nc2c(ncn2[C@@H]2O[C@H](CO)[C@@H](O)[C@H]2O)c(=O)[nH]1 [Guanosine, guanosine]",1.90,1.05,4.77,5.78,,,,,,,
"Nc1ccn([C@@H]2O[C@H](CO)[C@@H](O)[C@H]2O)c(=O)n1 [Cytidine, cytidine]",0.98,1.22,6.60,10.65,,,,,,,
"OC[C@H]1O[C@@H](n2cnc3c(O)ncnc32)[C@H](O)[C@@H]1O [Inosine, inosine]",2.60,1.56,7.45,12.05,,,,,,,
Acid Phosphatase Derived from Escherichia blattae: enzyme purified from cell-free extract of Escherichia blattae JCM 1650 (SEQ ID NO: 8) (protein) LALVATGNDTTTKPDLYYLKNSEAINSLALLPPPPAVGSIAFLNDQAMYEQGRLLRNTERGKLAAEDANLSSGGVANAFSGAFGSPITEKDAPALHKLLTNMIEDAGDLATRSAKDHYMRIRPFAFYGVSTCNTTEQDKLSKNGSYPSGHTSIGWATALVLAEINPQRQNEILKRGYELGQSRVICGYHWQSDVDAARVVGSAVVATLHTNPAFQQQLQKAKAEFAQHQKK,,,,,about 35 °C,not less than 30 times,6.5,5.2,up to 40 °C,1.56,
Acid Phosphatase Derived from Morganella morganii: enzyme purified from cell-free extract of Morganella morganii NCIMB 10466 (SEQ ID NO: 4) (protein) AIPAGNDATTKPDLYYLKNEQAIDSLKLLPPPPEVGSIQFLNDQAMYEKGRMLRNTERGKQAQADADLAAGGVATAFSGAFGYPITEKDSPELYKLLTNMIEDAGDLATRSAKEHYMRIRPFAFYGTETCNTKDQKKLSTNGSYPSGHTSIGWATALVLAEVNPANQDAILERGYQLGQSRVICGYHWQSDVDAARIVGSAAVATLHSDPAFQAQLAKAKQEFAQKSQK,,,,,about 35 °C,not less than 20 times,6.5,5.2,up to 30 °C,,2.60
